Active and inactive are the calls of the source.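 The calls were made as follows: active = compounds giving half or more protection of infected cells from virus-caused growth loss, again on retest; inactive = the rest.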
System: CEM cells HIV-1 protection, formazan growth assay
Test: NCI AIDS Antiviral Assay
Conditions: for IC50: measured here: growth of uninfected CEM cells
Procedure, shortened: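 Steps: treat uninfected and HIV-1-infected human CEM cells at five drug levels; quantify growth by soluble formazan; retest any compound reaching 50% protection; classify actives from the retest.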

Structure (SMILES)	EC50 [µM]	IC50 [µM]	outcome
COc1ccc(/C=C2\Cc3ccccc3C2=O)cc1	> 20	> 20	
O=S(Cc1ccccc1)/C(=C/NC(=S)N=Nc1c(O)[nH]c2ccccc12)c1ccccc1 (centres undefined)	58.9	178	
Oc1cccc2c(Cl)ccnc12	> 20	1.58	
CCOC(=O)C1=C(Nc2ccc(Cl)c(Cl)c2)OC/C1=N\NS(=O)(=O)c1ccc(C)cc1	> 74.1	64.6	
CC1=C(O)C(=O)C2C(=O)C1C(C)C2c1ccccc1 (centres undefined)	> 195	> 195	
CCC1=C2C(=O)c3ccccc3C2=C(C)S(=O)(=O)O1	257	263	
N#C/C(=C\c1ccc(O)c(O)c1)C(=O)NCCN1CCN(C(=O)/C(C#N)=C/c2ccc(O)c(O)c2)CC1	> 200	26.3	
O=C(O)c1ccc(N=Nc2ccc(/C=C/c3ccc(N=Nc4ccc(C(=O)O)cc4O)cc3S(=O)(=O)O)c(S(=O)(=O)O)c2)c(O)c1	> 513	4.27	
O=C1[C@H](O)[C@@H]2C(O)O[C@H]3[C@@H]2N1C[C@H]3[Si](c1ccccc1)(c1ccccc1)c1ccccc1 (some centres undefined)	> 200	> 200	
C[N+](C)(C)CC(=O)NC(=O)N/N=C\C(CC#N)CN(Cc1ccccc1)Cc1ccccc1 (centres undefined)	> 74.1	> 74.1	
O=C1c2cccc3cc([N+](=O)[O-])cc(c23)C(=O)N1CCCN(CCO)CCO			inactive
CCCCCCCCC#CCCCCCCC(F)C(=O)O (centres undefined)			inactive
N#CCc1ccccc1C(=O)O	> 1550	891	
COc1ccc(C2CC3(c4ccccc4)ON=C(c4ccccc4)N3c3ccccc3S2)cc1 (centres undefined)	> 200	> 200	
Cc1ccc(NC(=O)c2cc3ccccc3c(N=Nc3cc(S(=O)(=O)O)ccc3O)c2O)c(C)c1	0.832	4.27	
COc1ccc(-c2c(C3=NCCCN3)nnn2-c2ccccc2)cc1	> 759	282	
O=C(CCn1[nH]c(=O)c(Cl)c(Cl)c1=O)NOCCCc1ccccc1	> 646	> 646	
CCN1C(=O)/C(=C2\SC(c3ccccc3)(c3ccccc3)c3ccccc32)SC1=S	> 200	> 200	
C=C(Br)CNCC(=C)Br	> 200	129	
CC1CC(C)(C)NC2(CCCC2)N1 (centres undefined)	> 200	> 200	
O=C1OCc2cnccc21	> 1860	> 1860	

Structure (SMILES)	EC50 [µM]	IC50 [µM]	outcome
CC(=O)OC1(C#N)CC2OC1C1C2N1C(=O)OC(C)(C)C (centres undefined)	> 427	> 427	
CC(C)O[C@H]1N(C2CC(N=[N+]=[N-])C(CO)O2)C(=O)NC(=O)[C@]1(C)Br (some centres undefined)	2.88	> 200	
COc1cc(-c2cc(=O)c3cc4c(=O)cc(-c5cc(OC)c(OC)c(OC)c5)oc4cc3o2)cc(OC)c1OC	> 100	> 100	
Cc1cccc(C)c1NC(=O)CCCC(=O)C1CC(=O)CCC1=O (centres undefined)	> 550	> 550	
O=C1/C(=C/c2ccc([N+](=O)[O-])cc2)C(=O)N(c2ccccc2)C1c1ccccc1 (centres undefined)	> 74.1	41.7	
CC1CC/C(=C\c2ccc(N(C)C)cc2)C(=O)/C1=C/c1ccc(N(C)C)cc1 (centres undefined)	> 100	60.3	
OCc1ccc2[n+](c1)CCc1c-2[nH]c2ccccc12	> 77.6	> 77.6	
CC(=O)/C(=C\n1c(=S)[nH]c2ccccc21)C(=O)Nc1ccccc1	> 200	> 200	
COC1=C(C2(O)C(=O)N(C)c3ccccc32)C(=O)C(OC)=C(C2(O)C(=O)N(C)c3ccccc32)C1=O (centres undefined)	> 53.7		
O=S(=O)(O)C(O)C(O)S(=O)(=O)O (centres undefined)	> 200	79.4	
Brc1cn2[n+](c1)[B-]n1cc(Br)c[n+]1[B-]2	> 200	138	
Cc1occc1C(=S)Nc1ccc(Cl)c(C(=O)OC2CCCCC2)c1	0.012	7.24	
CCOC(=O)C1=C(C)NC(=S)NC1c1ccccc1 (centres undefined)	> 93.3	> 93.3	
CC(C)N1CN(c2ccccc2)C2(CCN(CCCC(=O)c3ccc(F)cc3)CC2)C1=O	> 200	5.75	
Cc1cn2c(C)csc2c1P(=O)(OC(C)C)OC(C)C	> 200	158	
CCCCCCCCCCCCCCCC(=O)Nc1ccn(C2CCC(COP(=O)(O)OC3CC(n4cc(C)c(=O)[nH]c4=O)OC3CO)O2)c(=O)n1 (centres undefined)	0.0933	45.7	
Cn1ccnc1Oc1ccc(Cl)cc1	> 200	9.77	
CCN(CC)C(=S)S	> 1450	39.8	
CN(C)c1ccc(/C=C2/N=C(c3ccccc3)OC2=O)cc1	> 200	141	
CN1C(=O)N(C)C(O)C(Cl)(Br)C1=O (centres undefined)	> 200	> 200	
COC(=O)Cn1cnc2c(Cl)nc(Nc3ccccc3)nc21	> 200	63.1	

Structure (SMILES)	EC50 [µM]	IC50 [µM]	outcome
CCN(CC)C(C)(C)C(=O)/C=C/c1ccc(C)cc1			inactive
COc1nc(OC)c2c(=O)oc(-c3ccccc3)cc2n1			inactive
C[C@H]1O[C@@H](C(C)(C)C)OC(=O)[C@@H]1C(OC(=O)c1ccccc1)c1cccc2ccccc12 (some centres undefined)	> 200	83.2	
COC(=O)CCC(C)C1CCC2[C@@H]3CC[C@@H]4CC(=O)CC[C@]4(C)C3CC[C@]12C (some centres undefined)	> 5.13	> 5.13	
CCOC(=O)C1C(c2ccc(OC)cc2)c2c([nH][nH]c2=O)CC1(C)O (centres undefined)	> 200	> 200	
C[C@H]1c2c(n(C3OC(CO)C(O)C3O)c(=O)[nH]c2=O)O[C@@H]1c1ccccc1 (some centres undefined)	> 200	> 200	
O=C1/C(=C\c2ccc(Cl)cc2)SC2SC=C(c3ccc([N+](=O)[O-])cc3)N12 (centres undefined)	> 200	26.3	
Cn1nc(-c2ccc(Cl)c(Cl)c2)[n+]([O-])c2c(=O)n(C)c(=O)nc1-2	> 200	1.38	
COC(=O)c1cc2c(n1S(=O)(=O)c1ccc(C)cc1)C(=O)C(=O)c1[nH]cc(C(=O)OCc3ccccc3)c1-2	> 200	0.38	
CC(=O)N(CCN1C(=O)c2ccccc2C1=O)CCN1C(=O)c2ccccc2C1=O			inactive
CCC1OC(=O)CC(O)C(C)C(OC2OC(C)CC(N(C)C)C2O)C(CC=O)CC(C)C(=O)/C=C/C2(C)OC2C1C (centres undefined)	> 200	33.9	
Cc1ccc(NC2=N/C(=C/c3ccccc3)C(Cl)=N2)cc1	> 100	> 100	
COc1ccc(S(=O)(=O)O)cc1C(=O)c1cc(S(=O)(=O)O)ccc1OC	> 575	> 575	
COc1ccc2c(c1)nc1n2C(N)=Nc2ccccc2S1	> 200	11.5	
Cc1cn([C@@H]2O[C@H](CO[Si](C)(C)C(C)(C)C)[C@]3(O[C@H]3C(=O)NN)[C@H]2O[Si](C)(C)C(C)(C)C)c(=O)[nH]c1=O	> 200	3.63	
Fc1ccc(-c2sc(-c3ccsc3)cc2Cc2ccsc2)cc1			inactive
O=c1[nH]c(=O)n(C2OC(CO)C(O)C2O)c2ncc(-c3ccc(-c4ccccc4)cc3)nc12 (centres undefined)	> 20	> 20	
Cc1sc2nc3n(c(=O)c2c1C)N=C(c1ccc(Cl)cc1)CS3	> 200	> 200	
CCCCCCCCCCCCCCCCC(C(=O)OC)S(=O)(=O)O (centres undefined)	> 200	123	
C=C=C(Sc1ccccc1)C(C)(C)OC(C)=O	> 50.1	14.5	
CC1(C)COC2(C)ON12 (centres undefined)	> 200	> 200	
